Laboratory results: patent EP4624466A1, “DEGRADER FOR DECOMPOSING CMET PROTEIN, AND PHARMACEUTICAL COMPOSITION COMPRISING SAME” (Innocure Therapeutics, Inc., priority 2022, dated 2024)

How the values were obtained:
c-MET [1] = molecular target: T1, c-MET (Homo sapiens, UniProt P08581); assay: c-MET protein degradation (Simple Western), MKN-45; format: cell-based; set-up: assess the resolution of the compound of the present invention for c-MET expressed in cells; endogenous in cells; host or cells: MKN45 (human gastric cancer); conditions: c-MET overexpressing gastric cancer cell line MKN-45, treated 24 hours; Table 2
T1 sequence (P08581 25-1390): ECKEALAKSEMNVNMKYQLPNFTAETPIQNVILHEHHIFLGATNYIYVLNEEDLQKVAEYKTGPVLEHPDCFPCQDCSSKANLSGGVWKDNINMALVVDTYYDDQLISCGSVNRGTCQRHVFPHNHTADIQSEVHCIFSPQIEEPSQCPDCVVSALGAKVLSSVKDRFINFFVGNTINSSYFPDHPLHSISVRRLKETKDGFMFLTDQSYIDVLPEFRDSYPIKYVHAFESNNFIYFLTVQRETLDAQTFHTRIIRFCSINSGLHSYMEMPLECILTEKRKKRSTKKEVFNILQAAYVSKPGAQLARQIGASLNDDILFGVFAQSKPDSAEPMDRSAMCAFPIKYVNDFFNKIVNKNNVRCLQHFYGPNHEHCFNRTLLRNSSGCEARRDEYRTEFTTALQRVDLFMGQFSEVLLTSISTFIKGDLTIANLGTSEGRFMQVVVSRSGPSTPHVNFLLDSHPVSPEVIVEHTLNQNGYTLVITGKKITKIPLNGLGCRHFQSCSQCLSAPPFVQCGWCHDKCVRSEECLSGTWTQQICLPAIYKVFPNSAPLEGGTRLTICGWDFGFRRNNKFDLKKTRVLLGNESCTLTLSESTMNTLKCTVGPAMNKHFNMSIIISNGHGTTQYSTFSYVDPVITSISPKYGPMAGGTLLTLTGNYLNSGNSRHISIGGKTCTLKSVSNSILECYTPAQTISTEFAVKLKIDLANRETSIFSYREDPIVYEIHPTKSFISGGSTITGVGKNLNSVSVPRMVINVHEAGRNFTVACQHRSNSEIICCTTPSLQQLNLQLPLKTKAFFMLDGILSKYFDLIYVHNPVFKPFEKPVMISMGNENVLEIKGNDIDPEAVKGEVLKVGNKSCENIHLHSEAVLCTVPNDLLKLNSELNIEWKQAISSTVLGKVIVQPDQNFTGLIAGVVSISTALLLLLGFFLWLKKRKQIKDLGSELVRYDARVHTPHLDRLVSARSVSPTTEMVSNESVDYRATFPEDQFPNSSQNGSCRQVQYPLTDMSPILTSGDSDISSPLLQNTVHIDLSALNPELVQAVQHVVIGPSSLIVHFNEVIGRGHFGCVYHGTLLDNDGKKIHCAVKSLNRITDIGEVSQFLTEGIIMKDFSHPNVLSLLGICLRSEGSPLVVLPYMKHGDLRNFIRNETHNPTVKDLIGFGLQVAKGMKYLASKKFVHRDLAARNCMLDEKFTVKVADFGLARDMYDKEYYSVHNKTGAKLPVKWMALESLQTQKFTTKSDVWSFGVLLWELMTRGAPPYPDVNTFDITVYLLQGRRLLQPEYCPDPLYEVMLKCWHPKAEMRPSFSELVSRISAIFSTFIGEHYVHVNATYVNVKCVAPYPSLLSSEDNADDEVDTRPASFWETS
Summary of the method: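 Cells treated 24 h (gastric lines) or 48 h (lung lines); 3 µg lysate protein analysed by capillary Simple Western with anti-c-MET, normalized to GAPDH and expressed as % of 0.1% DMSO; DC50 from expression change.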

Hs746T = assay: Cell viability / antiproliferative assay (WST-8), Hs746T; format: cell-based; conditions: Homo sapiens, Hs746T cells, 72 hours, Table 2
Procedure: (§2) c-MET overexpressing human gastric cancer cell lines [MKN45] and [SNU638] were cultured in RPMI medium with 10% fetal bovine serum, penicillin (100U/ml), and streptomycin (100mg/ml), and c-MET exon 14 skipping mutant human gastric cancer cell lines [Hs746T] were cultured in DMEM media. The c-MET overexpressing human lung cancer cell line EBC-1 was cultured in MEM media with the addition of 10% fetal bovine serum, penicillin (100U/ml), and streptomycin (100mg/ml). […] The compound synthesized in accordance with the present invention was prepared with a raw material solution of 10 mM dissolved in DMSO (dimethyl sulfoxide), and was sequentially diluted and processed.
(§3) In order to observe the inhibitory activity on cell growth, cells were dispensed in a 96-well plate at a concentration of 5,000 cells/well, and then treated with the compound prepared at various concentrations for 72 hours. The viability of the cells was calculated using GraphicPad Prism 8.0 software by adding 10 ml per well of WST-8 (water soluble tetrazolium salt) sample, which reacts with dehydrogenase present in the electron transport system of mitochondria to produce formazon, incubated for 2 hours, and measured absorbance at 450 nm.

MKN-45 = assay: Cell viability / antiproliferative assay (WST-8), MKN-45; conditions: Homo sapiens, MKN-45, 72 h, read-out: MKN-45 IC50;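 also: MKN-45 is a human gastric cancer line overexpressing c-MET, growth inhibition read as WST-8 formazan absorbance at 450 nm after 2 h dye incubation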
Procedure: as §2, §3

c-MET [2] = molecular target: T1, c-MET; assay: c-MET protein degradation (Simple Western), SNU-638; format: cell-based; set-up: assess the resolution of the compound of the present invention for c-MET expressed in cells; endogenous in cells; host or cells: SNU638 (human gastric cancer); conditions: c-MET overexpressing gastric cancer cell line SNU-638, treated 24 hours; Table 2
Procedure: (§1) In order to assess the resolution of the compound of the present invention for c-MET expressed in cells, cells were dispensed in a 12-well plate at a concentration of 2 × 10^5 cells/well, and then gastric cancer cell lines were treated with samples for 24 hours and lung cancer cell lines were treated for 48 hours. Cell lysates were collected using a scraper on ice, centrifuged at 4°C15,000 rpm for 30 min to obtain a protein-containing supernatant. Protein expression was then measured using the Simple Western Automated Western Blot System Abby instrument using 3 µg of protein for each sample. SDS and heat-induced denaturation proteins were separated by molecular weight, attached to capillary, reacted with anti-c-MET or anti-GAPDH antibodies, which are primary antibodies, and then reacted with HRP-conjugated secondary antibodies, and analyzed the protein expression signal with compass software. Protein expression was normalized based on the expression value of GAPDH, and protein development in each sample was measured as a percentage (%) based on 100% of samples treated with 0.1% DMSO carriers, and DC50 (concentration of a compound where 50% protein inhibition is achieved) was calculated from the change in protein expression amount due to compound treatment.

SNU-638 = assay: Cell viability / antiproliferative assay (WST-8), SNU-638; format: cell-based, human; conditions: Homo sapiens, SNU-638, 72 h, read-out: SNU-638 IC50
Procedure: as §2, §3

c-MET [3] = molecular target: T2, c-MET (Homo sapiens, UniProt P08581, DEL963-1009); assay: c-MET protein degradation (Simple Western), Hs746T; format: cell-based; conditions: c-MET exon 14 skipping mutant gastric cancer cell line Hs746T, treated 24 hours; Table 2
T2 construct: assess the resolution of the compound of the present invention for c-MET expressed in cells; endogenous in cells; host or cells: Hs746T (human gastric cancer)
T2 sequence (P08581 with tags, fused parts or gaps DEL963-1009): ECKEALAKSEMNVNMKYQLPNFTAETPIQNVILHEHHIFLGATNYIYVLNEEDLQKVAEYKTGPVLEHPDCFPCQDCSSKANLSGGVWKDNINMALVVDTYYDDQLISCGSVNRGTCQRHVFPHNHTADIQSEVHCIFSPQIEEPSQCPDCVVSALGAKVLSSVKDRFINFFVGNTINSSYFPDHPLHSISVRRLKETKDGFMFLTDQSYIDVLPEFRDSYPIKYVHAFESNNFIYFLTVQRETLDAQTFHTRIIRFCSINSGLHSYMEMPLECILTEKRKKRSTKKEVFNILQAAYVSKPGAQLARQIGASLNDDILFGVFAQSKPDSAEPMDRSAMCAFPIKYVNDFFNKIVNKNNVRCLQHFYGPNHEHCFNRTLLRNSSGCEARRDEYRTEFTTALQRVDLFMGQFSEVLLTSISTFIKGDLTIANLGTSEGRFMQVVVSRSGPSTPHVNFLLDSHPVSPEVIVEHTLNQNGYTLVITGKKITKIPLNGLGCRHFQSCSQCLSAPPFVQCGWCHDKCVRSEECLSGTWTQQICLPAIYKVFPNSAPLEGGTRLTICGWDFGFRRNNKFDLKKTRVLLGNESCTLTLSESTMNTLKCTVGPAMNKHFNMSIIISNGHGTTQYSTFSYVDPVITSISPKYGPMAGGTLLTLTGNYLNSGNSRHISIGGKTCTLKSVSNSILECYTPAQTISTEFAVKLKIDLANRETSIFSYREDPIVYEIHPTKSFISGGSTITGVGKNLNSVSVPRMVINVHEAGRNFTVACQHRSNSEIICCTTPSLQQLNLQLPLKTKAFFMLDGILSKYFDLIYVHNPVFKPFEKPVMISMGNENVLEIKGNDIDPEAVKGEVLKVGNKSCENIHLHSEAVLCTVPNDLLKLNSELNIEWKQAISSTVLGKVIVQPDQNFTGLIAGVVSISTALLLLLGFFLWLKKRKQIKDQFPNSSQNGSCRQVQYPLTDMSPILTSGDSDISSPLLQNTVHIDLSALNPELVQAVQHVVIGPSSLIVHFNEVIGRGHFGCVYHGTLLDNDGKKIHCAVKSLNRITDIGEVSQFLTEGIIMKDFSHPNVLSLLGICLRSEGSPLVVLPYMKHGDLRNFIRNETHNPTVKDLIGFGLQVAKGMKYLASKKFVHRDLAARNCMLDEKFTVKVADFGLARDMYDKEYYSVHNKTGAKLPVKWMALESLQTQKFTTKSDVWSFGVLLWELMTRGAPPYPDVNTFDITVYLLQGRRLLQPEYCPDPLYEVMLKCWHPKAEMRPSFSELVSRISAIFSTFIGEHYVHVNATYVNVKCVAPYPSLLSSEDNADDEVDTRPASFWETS
T2 sequence (P08581 25-307 partner limits assumed): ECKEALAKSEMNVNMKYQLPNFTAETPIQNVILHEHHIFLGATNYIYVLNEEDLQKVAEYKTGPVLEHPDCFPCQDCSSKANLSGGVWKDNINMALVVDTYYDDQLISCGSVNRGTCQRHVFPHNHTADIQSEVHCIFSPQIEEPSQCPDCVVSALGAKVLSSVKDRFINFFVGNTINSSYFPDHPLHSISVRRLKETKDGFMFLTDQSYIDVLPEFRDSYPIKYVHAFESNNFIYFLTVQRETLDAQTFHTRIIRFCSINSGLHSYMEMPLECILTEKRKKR
Procedure: as §1

EBC-1 = assay: Cell viability / antiproliferative assay (WST-8), EBC-1; format: cell-based, human; conditions: Homo sapiens, EBC-1, 72 h, read-out: EBC-1 IC50
Procedure: as §2, §3

c-MET [4] = molecular target: T1, c-MET; assay: c-MET protein degradation (Simple Western), EBC-1; format: cell-based; set-up: assess the resolution of the compound of the present invention for c-MET expressed in cells; endogenous in cells; host or cells: EBC-1 (human lung cancer); conditions: c-MET overexpressing lung cancer cell line EBC-1, treated 48 hours; Table 2
Procedure: as §1

Row | Compound | DC50 (c-MET [1]) [nM] | IC50 (Hs746T) [nM] | IC50 (MKN-45) [nM] | DC50 (c-MET [2]) [nM] | IC50 (SNU-638) [nM] | DC50 (c-MET [3]) [nM] | IC50 (EBC-1) [nM] | DC50 (c-MET [4]) [nM]
1 | Cc1nn(C2CCC(=O)NC2=O)c(=O)c2cc(N3CCN(C(=O)CCCN4CCC(COc5cnc(-c6cccc(Cn7nc(-c8cccc(C#N)c8)ccc7=O)c6)nc5)CC4)CC3)ccc12 (stereo not shown) [ICT-0001228] | < 100 | 100 to 1000 | – | – | – | – | – | –
2 | Cc1nn(C2CCC(=O)NC2=O)c(=O)c2ccc(N3CCN(C(=O)CCCN4CCC(COc5cnc(-c6cccc(Cn7nc(-c8cccc(C#N)c8)ccc7=O)c6)nc5)CC4)CC3)cc12 (stereo not shown) [ICT-0001227, 3-(1-(3-(5-((1-(4-(4-(2-(2,6-dioxopiperidin-3-yl)-4-methyl-1-oxo-1,2-dihydropetalazine-6-yl)piperazine-1-yl)4-oxobutyl)piperidine-4-yl)methoxy)pyrimidine-2-yl)benzyl)6-oxo-1,6-dihydropyridazine-3-yl)benzonitrile] | – | < 100 | < 100 | – | – | – | – | –
3 | N#Cc1cccc(-c2ccc(=O)n(Cc3cccc(-c4ncc(OCC5CCN(CCCC(=O)N6CCN(c7ccc8c(=O)n(C9CCC(=O)NC9=O)ncc8c7)CC6)CC5)cn4)c3)n2)c1 (stereo not shown) [ICT-0001226] | – | < 100 | < 100 | – | – | – | – | –
4 | N#Cc1cccc(-c2ccc(=O)n(Cc3cccc(-c4ncc(OCC5CCN(CC(=O)NCCCC#Cc6ccc7c(=O)n(C8CCC(=O)NC8=O)ncc7c6)CC5)cn4)c3)n2)c1 (stereo not shown) [ICT-0001205] | < 100 | 100 to 1000 | < 100 | – | – | – | – | –
5 | Cc1nn(C2CCC(=O)NC2=O)c(=O)c2ccc(N3CCN(C(=O)CCCCN4CCC(COc5cnc(-c6cccc(Cn7nc(-c8cccc(C#N)c8)ccc7=O)c6)nc5)CC4)CC3)cc12 (stereo not shown) [ICT-0001250] | – | < 100 | < 100 | – | – | – | – | –
6 | N#Cc1cccc(-c2ccc(=O)n(Cc3cccc(-c4ncc(N5CCN(CC6CCN(c7ccc(NC8CCC(=O)NC8=O)cc7F)CC6)CC5)cn4)c3)n2)c1 (stereo not shown) [ICT-0001402] | – | < 100 | – | < 100 | < 100 | < 100 | < 100 | < 100
7 | Cc1nn(C2CCC(=O)NC2=O)c(=O)c2cc(N3CCN(C(=O)CCN4CCC(COc5cnc(-c6cccc(Cn7nc(-c8cccc(C#N)c8)ccc7=O)c6)nc5)CC4)CC3)ccc12 (stereo not shown) [ICT-0001.225] | < 100 | < 100 | < 100 | – | – | – | – | –
8 | Cc1nn(C2CCC(=O)NC2=O)c(=O)c2ccc(N3CCN(C(=O)CCN4CCC(COc5cnc(-c6cccc(Cn7nc(-c8cccc(C#N)c8)ccc7=O)c6)nc5)CC4)CC3)cc12 (stereo not shown) [ICT-0001224] | < 100 | < 100 | < 100 | – | – | – | – | –
9 | N#Cc1cccc(-c2ccc(=O)n(Cc3cccc(-c4ncc(OCC5CCN(CCC(=O)N6CCN(c7ccc8c(=O)n(C9CCC(=O)NC9=O)ncc8c7)CC6)CC5)cn4)c3)n2)c1 (stereo not shown) [ICT-0001223] | < 100 | < 100 | < 100 | – | – | – | – | –
10 | Cc1nn(C2CCC(=O)NC2=O)c(=O)c2ccc(N3CCN(CCN4CCC(COc5cnc(-c6cccc(Cn7nc(-c8cccc(C#N)c8)ccc7=O)c6)nc5)CC4)CC3)cc12 (stereo not shown) [ICT-0001277, 3-(1-{[3-(5-{[1-(2-{4-[2-(2,6-dioxopiperidin-3-yl)-4-methyl-1-oxo-1,2-dihydrophthalazine-6-yl]piperazine-1-yl}ethyl)piperidine-4-il]methoxy}pyrimidine-2-yl)phenyl]methyl}6-oxo-1,6-dihydropyridazine-3-yl)benzonitrile] | < 100 | < 100 | < 100 | < 100 | < 100 | < 100 | < 100 | < 100
11 | Cc1nn(C2CCC(=O)NC2=O)c(=O)c2cc(F)c(N3CCN(CC4CCN(C(=O)CN5CCC(COc6cnc(-c7cccc(Cn8nc(-c9cccc(C#N)c9)ccc8=O)c7)nc6)CC5)CC4)CC3)cc12 (stereo not shown) [ICT-0001204] | < 100 | 100 to 1000 | < 100 | – | – | – | < 100 | –
12 | Cc1nn(C2CCC(=O)NC2=O)c(=O)c2ccc(N3CCN(c4ccc(NC(=O)CN5CCC(COc6cnc(-c7cccc(Cn8nc(-c9cccc(C#N)c9)ccc8=O)c7)nc6)CC5)cc4)CC3)cc12 (stereo not shown) [ICT-0001207] | < 100 | 100 to 1000 | < 100 | < 100 | < 100 | < 100 | < 100 | < 100
